One experiment concerns SR (NPM-ALK) cells. Kind of experiment: Growth inhibition IC50 in ALCL SR cells (CCK8/WST, 72 hours). The experiment is classed as cell-based. As to conditions: SR cells, WST.
Experiment [1] concerns the target T1, ALK protein in H3122 (EML4-ALK) cells (Homo sapiens, UniProt Q9UM73).
T1 construct: EML4 (Echinoderm microtubule-associated protein-like 4, Q9HC35) fusion partner, variant 1; host or cells: NCI-H3122 lung adenocarcinoma cells; the other entry of the earlier key: EML4 (Q9HC35, Echinoderm microtubule-associated protein-like 4)
As to the kind of experiment: Western blot of ALK protein level (degradation, DC50), ALK phosphorylation and downstream signaling in H3122 cells. The experiment is classed as cell-based. As to conditions: for DC50: ALK protein degradation in H3122 cells; for phosphorylation of AKT and ERK / ALK protein level / degradation: H3122 cells, western blot; for ALK protein level / degradation: up to 500 nM.

Where [2] appears, read: 72 h, Brigatinib-based PROTAD molecules (Table 3).
Setting [3] is: Alectinib based ALK PROTAD compounds (Table 4).

T1 sequence (Q9UM73 with tags, fused parts or gaps): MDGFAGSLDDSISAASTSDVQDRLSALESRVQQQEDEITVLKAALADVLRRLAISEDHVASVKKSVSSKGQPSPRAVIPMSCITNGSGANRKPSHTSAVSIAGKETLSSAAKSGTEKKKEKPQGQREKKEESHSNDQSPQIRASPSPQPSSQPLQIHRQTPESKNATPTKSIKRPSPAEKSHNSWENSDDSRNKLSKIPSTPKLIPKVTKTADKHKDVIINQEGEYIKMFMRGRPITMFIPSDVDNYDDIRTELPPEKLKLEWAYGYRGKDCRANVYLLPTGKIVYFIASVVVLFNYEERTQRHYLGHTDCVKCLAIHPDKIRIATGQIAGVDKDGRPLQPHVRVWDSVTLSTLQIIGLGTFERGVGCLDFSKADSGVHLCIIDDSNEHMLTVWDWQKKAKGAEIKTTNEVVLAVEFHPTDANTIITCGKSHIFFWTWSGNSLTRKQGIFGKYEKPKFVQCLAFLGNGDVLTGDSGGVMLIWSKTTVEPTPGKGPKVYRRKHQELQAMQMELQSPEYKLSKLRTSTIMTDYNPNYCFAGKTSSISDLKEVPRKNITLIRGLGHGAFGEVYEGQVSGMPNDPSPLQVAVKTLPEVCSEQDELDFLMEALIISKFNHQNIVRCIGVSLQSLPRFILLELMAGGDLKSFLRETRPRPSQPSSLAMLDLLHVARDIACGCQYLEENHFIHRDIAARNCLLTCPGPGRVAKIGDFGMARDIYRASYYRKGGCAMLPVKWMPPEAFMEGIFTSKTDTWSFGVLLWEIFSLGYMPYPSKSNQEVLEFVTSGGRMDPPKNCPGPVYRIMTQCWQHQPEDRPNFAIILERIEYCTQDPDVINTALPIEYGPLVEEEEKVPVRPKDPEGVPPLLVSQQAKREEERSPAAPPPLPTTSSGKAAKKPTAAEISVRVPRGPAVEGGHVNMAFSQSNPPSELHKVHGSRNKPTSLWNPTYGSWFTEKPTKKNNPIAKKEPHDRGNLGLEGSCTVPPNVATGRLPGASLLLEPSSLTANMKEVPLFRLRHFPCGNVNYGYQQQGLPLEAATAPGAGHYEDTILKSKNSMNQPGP
Description for SR (NPM-ALK) cells: SR (NPM-ALK) and NCI-H2228 (EML4-ALK, V3) cells were purchased from ATCC. […] All Cells were cultured in RPMI1640 medium with 10% FBS and Penicillin-Streptomycin in 37° C. incubator with 5% CO2.
Cells were seeded at specific density in 96 well plates one day before treatment. […] Viable cells were measured via CCK8 reagent and IC50s were calculated via Prism Graphad. Experiments were repeated at least three times.

In the experiment with SR (NPM-ALK) cells (setting [2]), `COc1cc(N2CCC(NC(=O)CCOCCOCCOCCNc3cccc4c3C(=O)N(C3CCC(=O)NC3=O)C4=O)CC2)ccc1Nc1ncc(Cl)c(Nc2ccccc2P(C)(C)=O)n1` (stereo not shown) [SIAIS151115, N-(1-(4-((5-chloro-4-((2-(dimethylphosphoryl)phenyl)amino)pyrimidin-2-yl)amino)-3-methoxyphenyl)piperidin-4-yl)-3-(2-(2-(2-((2-(2,6-dioxopiperidin-3-yl)-1,3-dioxoisoindolin-4-yl)amino)ethoxy)ethoxy)ethoxy)propenamide] came in with an IC50 of 8 ± 3.2 nM. The compound further gave a DC50 in experiment [1] of 100 to 500 nM.
On the same counts, the results for `COc1cc(N2CCC(NC(=O)CCOCCOCCOCCOCCNc3cccc4c3C(=O)N(C3CCC(=O)NC3=O)C4=O)CC2)ccc1Nc1ncc(Cl)c(Nc2ccccc2P(C)(C)=O)n1` (stereo not shown) [SIAIS151116, N-(1-(4-((5-chloro-4-((2-(dimethylphosphoryl)phenyl)amino)pyrimidin-2-yl)amino)-3-methoxyphenyl)piperidin-4-yl)-1-((2-(2,6-dioxopiperidin-3-yl)-1,3-dioxoisoindolin-4-yl)amino)-3,6,9,12-tetraoxapentadecan-15-amide] are 15.3 ± 9.8 nM and 100 to 500 nM.
The like results for `COc1cc(N2CCC(NC(=O)CCCCNc3cccc4c3C(=O)N(C3CCC(=O)NC3=O)C4=O)CC2)ccc1Nc1ncc(Cl)c(Nc2ccccc2P(C)(C)=O)n1` (stereo not shown) [SIAIS151119, N-(1-(4-((5-chloro-4-((2-(dimethylphosphoryl)phenyl)amino)pyrimidin-2-yl)amino)-3-methoxyphenyl)piperidin-4-yl)-5-((2-(2,6-dioxopiperidin-3-yl)-1,3-dioxoisoindolin-4-yl)amino)pentanamide] were, in that order, 1.6 ± 1 nM and 100 to 500 nM.
The like results for `COc1cc(N2CCC(NC(=O)CNc3cccc4c3C(=O)N(C3CCC(=O)NC3=O)C4=O)CC2)ccc1Nc1ncc(Cl)c(Nc2ccccc2P(C)(C)=O)n1` (stereo not shown) [SIAIS151120, N-(1-(4-((5-chloro-4-((2-(dimethylphosphoryl)phenyl)amino)pyrimidin-2-yl)amino)-3-methoxyphenyl)piperidin-4-yl)-2-((2-(2,6-dioxopiperidin-3-yl)-1,3-dioxoisoindolin-4-yl)amino)acetamide] were, in that order, 11.4 ± 7.8 nM and 20 to 100 nM.
For `COc1cc(N2CCC(NC(=O)CCNc3cccc4c3C(=O)N(C3CCC(=O)NC3=O)C4=O)CC2)ccc1Nc1ncc(Cl)c(Nc2ccccc2P(C)(C)=O)n1` (stereo not shown) [SIAIS151121, N-(1-(4-((5-chloro-4-((2-(dimethylphosphoryl)phenyl)amino)pyrimidin-2-yl)amino)-3-methoxyphenyl)piperidin-4-yl)-3-((2-(2,6-dioxopiperidin-3-yl)-1,3-dioxoisoindolin-4-yl)amino)propenamide], in the experiment on SR (NPM-ALK) cells (setting [2]), the IC50 came out at 20.4 ± 8.5 nM. For the same compound, the DC50 in experiment [1] was 100 to 500 nM.
The like results for `COc1cc(N2CCC(NC(=O)CCOCCOCCC(=O)N[C@H](C(=O)N3C[C@H](O)C[C@H]3C(=O)NCc3ccc(-c4scnc4C)cc3)C(C)(C)C)CC2)ccc1Nc1ncc(Cl)c(Nc2ccccc2P(C)(C)=O)n1` [SIAIS151124, (2S,4R)-1-((S)-2-(3-(2-(3-((1-(4-((5-chloro-4-((2-(dimethylphosphoryl)phenyl)amino)pyrimidin-2-yl)amino)-3-methoxyphenyl)piperidin-4-yl)amino)-3-oxopropoxy)ethoxy)propanamido)-3,3-dimethylbutanoyl)-4-hydroxy-N-(4-(4-methylthiazol-5-yl)benzyl)pyrrolidine-2-carboxamide] were, in that order, 76.9 ± 15.9 nM and 100 to 500 nM.
On the same counts, the results for `COc1cc(N2CCC(NC(=O)CCOCCOCCOCCC(=O)N[C@H](C(=O)N3C[C@H](O)C[C@H]3C(=O)NCc3ccc(-c4scnc4C)cc3)C(C)(C)C)CC2)ccc1Nc1ncc(Cl)c(Nc2ccccc2P(C)(C)=O)n1` [SIAIS151125, (2S,4R)-1-((S)-2-(tert-butyl)-16-((1-(4-((5-chloro-4-((2-(dimethylphosphoryl)phenyl)amino)pyrimidin-2-yl)amino)-3-methoxyphenyl)piperidin-4-yl)amino)-4,16-dioxo-7,10,13-trioxa-3-azahexadecanoyl)-4-hydroxy-N-(4-(4-methylthiazol-5-yl)benzyl)pyrrolidine-2-carboxamide] are 61.9 ± 30.5 nM and 100 to 500 nM.
On the same counts, the results for `COc1cc(N2CCC(NC(=O)CCOCCOCCOCCOCCC(=O)N[C@H](C(=O)N3C[C@H](O)C[C@H]3C(=O)NCc3ccc(-c4scnc4C)cc3)C(C)(C)C)CC2)ccc1Nc1ncc(Cl)c(Nc2ccccc2P(C)(C)=O)n1` [SIAIS151126, N1-(1-(4-((5-chloro-4-((2-(dimethylphosphoryl)phenyl)amino)pyrimidin-2-yl)amino)-3-methoxyphenyl)piperidin-4-yl)-N16-((S)-1-((2S,4R)-4-hydroxy-2-((4-(4-methylthiazol-5-yl)benzyl)carbamoyl)pyrrolidin-1-yl)-3,3-dimethyl-1-oxobutan-2-yl)-4,7,10,13-tetraoxahexadecanediamide] are 31.9 ± 11.9 nM and 100 to 500 nM.
With `COc1cc(N2CCC(NC(=O)CCOCCOCCOCCOCCOCCC(=O)N[C@H](C(=O)N3C[C@H](O)C[C@H]3C(=O)NCc3ccc(-c4scnc4C)cc3)C(C)(C)C)CC2)ccc1Nc1ncc(Cl)c(Nc2ccccc2P(C)(C)=O)n1` [SIAIS151127, N1-(1-(4-((5-chloro-4-((2-(dimethylphosphoryl)phenyl)amino)pyrimidin-2-yl)amino)-3-methoxyphenyl)piperidin-4-yl)-N19-((S)-1-((2S,4R)-4-hydroxy-2-((4-(4-methylthiazol-5-yl)benzyl)carbamoyl)pyrrolidin-1-yl)-3,3-dimethyl-1-oxobutan-2-yl)-4,7,10,13,16-pentaoxanonadecanediamide], in the experiment on SR (NPM-ALK) cells (setting [2]), the midpoint of inhibition, the IC50, lay at 36.4 ± 23.5 nM. In addition, the DC50 in experiment [1] was in the range of 20 to 100 nM.
The like results for `COc1cc(N2CCC(NC(=O)COCCOCC(=O)N[C@H](C(=O)N3C[C@H](O)C[C@H]3C(=O)NCc3ccc(-c4scnc4C)cc3)C(C)(C)C)CC2)ccc1Nc1ncc(Cl)c(Nc2ccccc2P(C)(C)=O)n1` [SIAIS151128, (2S,4R)-1-((S)-2-(2-(2-(2-((1-(4-((5-chloro-4-((2-(dimethylphosphoryl)phenyl)amino)pyrimidin-2-yl)amino)-3-methoxyphenyl)piperidin-4-yl)amino)-2-oxoethoxy)ethoxy)acetamido)-3,3-dimethylbutanoyl)-4-hydroxy-N-(4-(4-methylthiazol-5-yl)benzyl)pyrrolidine-2-carboxamide] were, in that order, 6.3 ± 0.2 nM and 100 to 500 nM.
`CCc1cc2c(cc1N1CCN(C(=O)CCOCCOCCOCCOCCNc3cccc4c3C(=O)N(C3CCC(=O)NC3=O)C4=O)CC1)C(C)(C)c1[nH]c3cc(C#N)ccc3c1C2=O` (stereo not shown) [SIAIS164014, 8-(4-(1-((2-(2,6-dioxopiperidin-3-yl)-1,3-dioxoisoindolin-4-yl)amino)-3,6,9,12-tetraoxapentadecan-15-oyl)piperazin-1-yl)-9-ethyl-6,6-dimethyl-11-oxo-6,11-dihydro-5H-benzo[b]carbazole-3-carbonitrile] had an IC50 in the experiment with SR (NPM-ALK) cells (setting [3]) of 81 nM. In experiment [1], this compound gave a half-maximal degradation concentration (DC50) of 100 to 500 nM.
For the compound `CCc1cc2c(cc1N1CCN(C(=O)CCCNc3cccc4c3C(=O)N(C3CCC(=O)NC3=O)C4=O)CC1)C(C)(C)c1[nH]c3cc(C#N)ccc3c1C2=O` (stereo not shown) [SIAIS164024, 8-(4-(4-((2-(2,6-dioxopiperidin-3-yl)-1,3-dioxoisoindolin-4-yl)amino)butanoyl)piperazin-1-yl)-9-ethyl-6,6-dimethyl-11-oxo-6,11-dihydro-5H-benzo[b]carbazole-3-carbonitrile], the IC50 in the experiment with SR (NPM-ALK) cells (setting [3]) stood at 35.8 nM. Moreover, in experiment [1], the DC50 fell in the range of 1 to 10 nM; the “phosphorylation of AKT and ERK” value is listed as “inhibited”; the “ALK protein level / degradation” value is recorded as “reduced the protein level of ALK protein”.
The like results for `CCc1cc2c(cc1N1CCN(C(=O)CCCCCNc3cccc4c3C(=O)N(C3CCC(=O)NC3=O)C4=O)CC1)C(C)(C)c1[nH]c3cc(C#N)ccc3c1C2=O` (stereo not shown) [SIAIS164026, 8-(4-(6-((2-(2,6-dioxopiperidin-3-yl)-1,3-dioxoisoindolin-4-yl)amino)hexanoyl)piperazin-1-yl)-9-ethyl-6,6-dimethyl-11-oxo-6,11-dihydro-5H-benzo[b]carbazole-3-carbonitrile] were, in that order, 148 nM, 1 to 10 nM, “inhibited” and “reduced the protein level of ALK protein”.
Regarding `CCc1cc2c(cc1N1CCN(C(=O)CCOCCOCCC(=O)N[C@H](C(=O)N3C[C@H](O)C[C@H]3C(=O)NCc3ccc(-c4scnc4C)cc3)C(C)(C)C)CC1)C(C)(C)c1[nH]c3cc(C#N)ccc3c1C2=O` [SIAIS164036, (2S,4R)-1-((S)-2-(3-(2-(3-(4-(3-cyano-9-ethyl-6,6-dimethyl-11-oxo-6,11-dihydro-5H-benzo[b]carbazol-8-yl)piperazin-1-yl)-3-oxopropoxy)ethoxy)propanamido)-3,3-dimethylbutanoyl)-4-hydroxy-N-(4-(4-methylthiazol-5-yl)benzyl)pyrrolidine-2-carboxamide], the midpoint of inhibition with SR (NPM-ALK) cells (setting [3]), the IC50, lay at 132 nM. In experiment [1], this compound registered a DC50 of 20 to 100 nM.
The like results for `CCc1cc2c(cc1N1CCN(C(=O)CCCC(=O)N[C@H](C(=O)N3C[C@H](O)C[C@H]3C(=O)NCc3ccc(-c4scnc4C)cc3)C(C)(C)C)CC1)C(C)(C)c1[nH]c3cc(C#N)ccc3c1C2=O` [SIAIS164094, (2S,4R)-1-((S)-2-(5-(4-(3-cyano-9-ethyl-6,6-dimethyl-11-oxo-6,11-dihydro-5H-benzo[b]carbazol-8-yl)piperazin-1-yl)-5-oxopentanamido)-3,3-dimethylbutanoyl)-4-hydroxy-N-(4-(4-methylthiazol-5-yl)benzyl)pyrrolidine-2-carboxamide] were, in that order, 124 nM and 20 to 100 nM.

(Values after patent publication US11771709B2, “ALK protein degradation agent and anti-tumor application thereof” (ShanghaiTech University, priority 2017, dated 2023).)
